Source: US4414226A, “1,4-Naphtoquinone derivatives and their use in treating coccidiosis” (Fujisawa Pharmaceutical Co., Ltd., priority 1980, dated 1983)

How the values were obtained:
[1] = tested on: Eimeria tenella; assay: coccidium infection and treatment test in the chicken (Test example 1, Table 1); type: in vivo, Eimeria tenella; male white Leghorn chickens; set-up: Lesion score: scale not given here; settings: for Lesion score: 3 times a day for 3 days, cecal lesions; for Weight gain index: noninfected group = 100
Experimental: (1) A coccidium infection and treatment test in the chicken
Male white Leghorn chickens, aged 2 weeks and with a mean body weight of 100 g, were treated with two representative examples of product compound (I) and Monensin, a control drug, at the various dose levels indicated in Table 1. Each compound and drug was suspended in a 1% aqueous solution of gum arabic and 2 ml per dose of the suspension was administered 3 times a day for 3 consecutive days. Birds in the untreated control groups were given 2 ml per dose of a 1% aqueous solution of gum arabic only in otherwise the same manner.
Immediately after the first dosing, birds in the infected groups were orally inoculated with 3.0×10^4 /bird of oocysts of Eimeria tenella. Body weights were taken at the first treatment and on the 3rd day after the entire course of treatment to investigate changes in body weight. Immediately after the second taking of body weights, the birds were terminated and autopsied to examine and score the cecal lesions.
Dosage: The total dose (mg) given to each bird during the test period.
Weight gain index: These indices were computed with the body weight gain
of birds in the noninfected group being taken as 100.
Three birds were assigned to each of the infected-non-treated groups, non-infected groups, the monencin group and the (Ia-A) groups, and the weight gain indices were computed from the mean body weight values for 3 birds. The (Ia-B) groups each consisted of a bird only.

[2] = Solubility; type: physicochemical
[3] = Stability; type: physicochemical
[4] = total dose 40 mg per bird, oral
[5] = 30 minutes in 50° C. solution at pH 2
[6] = 30 minutes in 50° C. solution at pH 10

Compound	Lesion score ([1]; total dose 1.25 mg per bird)	Weight gain index ([1]; total dose 1.25 mg per bird)	Lesion score ([1]; total dose 2.5 mg per bird)	Weight gain index ([1]; total dose 2.5 mg per bird)	Lesion score ([1]; total dose 5 mg per bird)	Weight gain index ([1]; total dose 5 mg per bird)	Lesion score ([1]; total dose 10 mg per bird)	Weight gain index ([1]; total dose 10 mg per bird)	Lesion score ([1]; total dose 20 mg per bird)	Weight gain index ([1]; total dose 20 mg per bird)	Lesion score [1, 4]	Weight gain index ([1]; total dose 40 mg per bird)	Solubility ([2]; acetone)	Solubility ([2]; chloroform)	Solubility ([2]; ethanol)	Solubility ([2]; methanol)	Solubility ([2]; water)	Solubility ([2]; ethyl acetate)	Solubility ([2]; hexane)	Stability [3, 5]	other results
COc1cc(C)cc2c(=O)oc3c(c12)C(=O)c1cccc(O)c1C3=O [(Ia-A), 8-hydroxy-1-methoxy-3-methyl-7,12-dihydro-5H-benzo[d]naphtho[2,3-b]pyran-5,7,12-trione]	2.0	108	2.0	92	0.3	97	0	106	0	108	0	95	Sparingly soluble	Sparingly soluble	Sparingly soluble	Sparingly soluble	Insoluble				Solubility ([2]; dimethyl sulfoxide): Partially soluble; Solubility ([2]; tetrahydrofuran): Partially soluble; Stability ([3]; acid solutions): Instable; Stability ([3]; alkaline solutions): Instable
COc1cc(C)cc(C(=O)O)c1C1=CC(=O)c2c(O)cccc2C1=O [(Ia-B), 2-(5-hydroxy-1,4-naphthoquinon-2-yl)-3-methoxy-5-methylbenzoic acid]			3	68	0	80	0	95	0	90	0	102	Readily soluble	Readily soluble	Readily soluble	Readily soluble	Insoluble	Readily soluble	Insoluble	Stable	Solubility ([2]; benzene): Insoluble; Stability [3, 6]: Stable
COc1cc(C)cc(C(=O)O)c1C1=C(O)C(=O)c2c(O)cccc2C1=O [(Ia-C), 2-(3,5-dihydroxy-1,4-naphthoquinon-2-yl)-3-methoxy-5-methylbenzoic acid]													Partially soluble		Readily soluble	Readily soluble	Insoluble	Partially soluble	Insoluble	Stable	Solubility ([2]; ether): Insoluble; Stability [3, 6]: Stable
CC[C@@]1([C@@H]2O[C@@H]([C@H]3O[C@@](O)(CO)[C@H](C)C[C@@H]3C)C[C@@H]2C)CC[C@H]([C@]2(C)CC[C@]3(C[C@H](O)[C@@H](C)[C@@H]([C@@H](C)[C@@H](OC)[C@H](C)C(=O)O)O3)O2)O1 [Monensin, reference compound]	4.0	99	2.7	92	2.3	98	0	68	0	51	0	41									
